The record followed here is US11919892B1, “2-(benzo[d]thiazol-2-yl)-N'-(2-(5-(4-chlorophenyl)-1,3,4-oxadiazol-2-ylthio)acetoxy)acetimidamide as an antimicrobial compound” (KING FAISAL UNIVERSITY, priority 2023, dated 2024).

In series [1] the test system is Bacillus Cereus. Briefly: Agar plate disc-diffusion, antibacterial, Bacillus cereus. It is filed as cell-based. Conditions: nutrient agar, 37° C., 48 hours. The protocol:
(§1) The agar plate disc-diffusion method was applied. Sterilized filter papers (6 mm in diameter) were wetted with 10 μL of a solution of 2-(benzo[d]thiazol-2-yl)-N′-(2-(5-(4-chlorophenyl)-1, 3,4-oxadiazol-2-ylthio)acetoxy)acetimidamide (3) to be tested, containing 10 mg/mL in DMSO, and the discs were allowed to air dry. The discs were then placed onto the surface of agar plates (nutrient agar for bacteria and Sabouraud's dextrose agar for fungi) seeded with the test organism. Each plate contained 15 mL of the agar medium, previously seeded with 0.2 mL of the broth culture of each organism pregrown for 18 hours. The plates were incubated at 37° C. for 48 hours and 72 hours for fungi. The inhibition zones were measured in mm. Discs impregnated with DMSO were used as a control, and their inhibition zone was subtracted from the tested compound's actual inhibition zone.
In general terms: In agar diffusion tests the substance spreads into inoculated agar from a disc or well.

For series [2], the system named is Staphylococcus aureus. As to the kind of experiment: Agar plate disc-diffusion, antibacterial, Staphylococcus aureus. Conditions: nutrient agar, 37° C., 48 hours. In kind it is cell-based. The protocol:
as §1

Series [3] has as its system Pseudomonas aeruginosa. As to the kind of experiment: Agar plate disc-diffusion, antibacterial, Pseudomonas aeruginosa. It is filed as cell-based. Conditions: nutrient agar, 37° C., 48 hours. The protocol:
as §1

In series [4] the test system is Escherichia coli. Briefly: Agar plate disc-diffusion, antibacterial, Escherichia coli. It is filed as cell-based. Conditions: nutrient agar, 37° C., 48 hours. On the procedure:
as §1

Series [5] deals with Aspergillus flavus. Briefly: Agar plate disc-diffusion, antifungal, Aspergillus flavus. In kind it is cell-based. Conditions: Sabouraud's dextrose agar, 72 hours. On the procedure:
as §1

The subject of series [6] is Chrysosporium keratinophilum. As to the kind of experiment: Agar plate disc-diffusion, antifungal, Chrysosporium keratinophilum. It is filed as cell-based. Conditions: Sabouraud's dextrose agar, 72 hours. On the procedure: as §1
Setting [7] is: B = concentration of comp. = 30,000 μL.
[8] abbreviates: C = concentration of comp. = 50,000 μL.
[9] abbreviates: A = concentration of comp. = 10,000 μL.

For `N/C(Cc1nc2ccccc2s1)=N\OC(=O)CSc1nnc(-c2ccc(Cl)cc2)o1` [compound 3, 2-(benzo[d]thiazol-2-yl)-N′-(2-(5-(4-chlorophenyl)-1,3,4-oxadiazol-2-ylthio)acetoxy)acetimidamide], the melting point (commonly the temperature, or range, at which the solid turns liquid) lay within 157 to 158 °C. Further, in series [1] (A =), the “inhibition zone, Bacillus Cereus, A” value amounted to 25 mm. Moreover, the “inhibition zone, Bacillus Cereus, B” value in series [1] (setting [7]) amounted to 28 mm. The “inhibition zone, Bacillus Cereus, C” value in series [1] (setting [8]) was 39 mm. Besides, the “inhibition zone, Staphylococcus aureus, A” value in series [2] (setting [9]) stood at 33 mm. Also, in series [2] (setting [7]), the “inhibition zone, Staphylococcus aureus, B” value is given as 40 mm. Also, the “inhibition zone, Staphylococcus aureus, C” value in series [2] (setting [8]) worked out at 52 mm. Besides, the “inhibition zone, Pseudomonas aeruginosa, A” value in series [3] (setting [9]) is 23 mm. Moreover, the “inhibition zone, Pseudomonas aeruginosa, B” value in series [3] (setting [7]) stood at 27 mm. The “inhibition zone, Pseudomonas aeruginosa, C” value in series [3] (setting [8]) stood at 43 mm. Also, the “inhibition zone, Escherichia coli, A” value in series [4] (setting [9]) is 25 mm. Further, the “inhibition zone, Escherichia coli, B” value in series [4] (setting [7]) was 34 mm. In addition, the “inhibition zone, Escherichia coli, C” value in series [4] (setting [8]) is listed as 47 mm. For the same compound, the “inhibition zone, Aspergillus flavus, A” value in series [5] (setting [9]) was 24 mm. For the same compound, the “inhibition zone, Aspergillus flavus, B” value in series [5] (setting [7]) was 29 mm. The “inhibition zone, Aspergillus flavus, C” value in series [5] (setting [8]) is 41 mm. In addition, the “inhibition zone, Chrysosporium keratinophilum, A” value in series [6] (setting [9]) worked out at 26 mm. The “inhibition zone, Chrysosporium keratinophilum, B” value in series [6] (setting [7]) is listed as 31 mm. Besides, the “inhibition zone, Chrysosporium keratinophilum, C” value in series [6] (setting [8]) came out at 49 mm.
